Laboratory results as given in PubChem BioAssay (NCI).
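Dose response: 5 concentrations. Exposure: 48 h. Format: 96-well plates. Endpoint: linear interpolation; highest concentration if not reached. GI50 marks 50% less growth. TGI denotes the concentration required for complete inhibition of growth.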

test system: MDA-MB-468 breast; experiment: NCI-60 cell line screen, 48 h

| SMILES | GI50 | TGI |
| --- | --- | --- |
| COc1ccc2[nH]c3c4[nH]c5ccc(OC)cc5c4c4c(c3c2c1)C(=O)NC4=O | > 25000 nM | > 25000 nM |
| Cc1cc(C)c(NC(=O)c2sc3nc4c(cc3c2N)C(=O)CCC4)c(C)c1 | 651 nM | 4390 nM |
| CCc1nc2cc(F)c(/C=C/C(=O)NO)cc2c(=O)n1CCc1ccccc1 | 217 nM | 761 nM |
| COc1ccccc1CNCCCN1C(=O)c2ccc3c4c(ccc(c24)C1=O)C(=O)N(CCCNCCNCCCN)C3=O | 456 nM | 2220 nM |
| COC(=O)Nc1nc2ccc(C3(c4ccc(F)cc4)OCCO3)cc2[nH]1 | 159 nM | 1190 nM |
| COc1ccc(C(=O)c2cc(OC)c(OC)c(OC)c2)cc1/C=C/C(=O)c1ccc(F)cc1 | 4630 nM | 27100 nM |
| COc1c(C(=O)/C=C/c2ccccc2)c(O)cc2occc12 | 6770 nM | 21400 nM |
| COc1ccc(-c2[nH]c3ccc(OC)cc3c2/C=C(\C#N)S(=O)(=O)c2ccccc2)cc1 | 1330 nM | 44000 nM |
| COc1ccc(C(=O)c2cc(C)c(OC)c(C)c2)c(OC)c1O | 489 nM | > 100000 nM |
| O=S(=O)(c1ccc(NC(=S)NC23CC4CC(CC(C4)C2)C3)cc1)N1CCCCC1 | 2270 nM | 6840 nM |
| CCCCC(CC)COC(=O)C[N+](C)(C)CCOC(c1ccccc1)c1ccccc1 (stereo unspecified) | 1460 nM | 3120 nM |
| COc1ccc(/C=C/c2c(C(=O)/C=C/c3ccccc3)c(C)nc3ccccc23)cc1 | 1780 nM | 3480 nM |
| CCOC(=O)C1CCN(S(=O)(=O)/N=C2/NC(=O)NC2=C(Cl)Cl)CC1 | 387 nM | 2080 nM |
| COCC[C@H]1CCC/C=C/[C@@H]2C[C@H](O)C[C@H]2[C@H](O)/C=C/C(=O)O1 | 24.5 nM | 71.4 nM |
| COc1cc(OC)c(C(=O)/C=C/c2cccc(C(F)(F)F)c2)c(OC)c1 | 755 nM | 2010 nM |
| COc1ccc(-c2nc3ccccn3c2/C=C/C(=O)c2cc(OC)c(OC)c(OC)c2)cc1OC | 2280 nM | 5710 nM |
| COc1cc2ncnc(-n3ncc4cc(NC(=O)Nc5ccccc5)ccc43)c2cc1OC | 1180 nM | 3350 nM |
| CCCC(CCC)NCC(O)c1cc(-c2ccc(C(F)(F)F)cc2)nc(C(F)(F)F)c1 (stereo unspecified) | 1580 nM | 2980 nM |
| O=C1/C(=C(/c2ccccc2)N2CCOCC2)Cc2ccccc21 | 501 nM | 1900 nM |

| SMILES | GI50 | TGI |
| --- | --- | --- |
| C=C1C(=O)O[C@H]2[C@H]1CC/C(COC(=O)NCCCCNC(=O)OC/C1=C/CC[C@@]3(C)O[C@H]3[C@H]3OC(=O)C(=C)[C@@H]3CC1)=C\CC[C@@]1(C)O[C@@H]21 | 426 nM | 2000 nM |
| C=C(C)[C@H]1Cc2c(ccc3c2O[C@@H]2COc4cc(OC)c(OC)cc4[C@@H]2C3=O)O1 | 81.6 nM | > 100000 nM |
| COc1ccc(C(=O)c2cc(C)c(OC)c(C)c2)cc1OC(=O)CCl | 89.4 nM | 75200 nM |
| CC1(C)C(=O)/C(=C\c2cccnc2)C[C@]2(C)[C@H]3CC[C@@H]4[C@H]5[C@H](C(=O)/C=C/c6cccnc6)CC[C@]5(C(=O)O)CC[C@@]4(C)[C@]3(C)CC[C@@H]12 | 2140 nM | 5700 nM |
| NS(=O)(=O)c1ccc(-c2ccc3c(NC(=O)C4CC4)n[nH]c3c2)cc1 | > 21600 nM | > 25000 nM |
| Nc1nc(Nc2cccnc2)sc1C(=O)c1ccccc1F | 1370 nM | 4040 nM |
| O=C(Nc1n[nH]c2cc(-c3ccccc3)ccc12)C1CC1 | 4000 nM | > 25000 nM |
| CN1CCN(Cc2ccc(NC(=O)c3cncc(C#Cc4cnn5cccnc45)c3)cc2C(F)(F)F)CC1 | 8350 nM | 22800 nM |
| NC(=O)c1cc(Cl)ccc1NC(=O)/C=C/c1ccccc1 | 1100 nM | 11500 nM |
| Cc1ccc(NC(=O)c2cccc(C(C)(C)C#N)c2)cc1Nc1ccc2ncn(C)c(=O)c2c1 | 15800 nM | > 100000 nM |
| CC(C)c1ccc(-c2cc(-c3cn[nH]c3-c3ccccn3)ccn2)cc1 | 10500 nM | 24700 nM |
| CCNCCNc1cc(-c2ccc(C(F)(F)F)cc2)c(C#N)c2nc3ccccc3n12 | 688 nM | 2140 nM |
| CN1CCN(CCCNc2nc3ccc(Oc4ccc(NC(=O)Nc5cc(C(F)(F)F)ccc5F)cc4)cc3[nH]2)CC1 | 3330 nM | 6570 nM |
| Cc1cc2ncnn2cc1Nc1ncc2c(n1)n(C1CCOCC1)c(=O)n2C | 4370 nM | 44800 nM |
| CC/C=C\C[C@H](O)C/C=C1/C(=O)C=C[C@@H]1C/C=C\CCCC(=O)OC | 1680 nM | 3770 nM |
| C=C(C)[C@@H]1CC[C@]2(CO)CC[C@]3(C)[C@H](CC[C@@H]4[C@@]5(C)C=C(C#N)C(=O)C(C)(C)[C@@H]5CC[C@]43C)[C@@H]12 | 1300 nM | 3850 nM |
| C/C(=N\Nc1ccc(Cl)cn1)c1ccc2ccccc2n1 | 2880 nM | > 100000 nM |
| CC1=CC(=O)C=CC1=O | 1570 nM | 3210 nM |
| Cc1cc(C(=O)Nc2ccc3cc(CN4CCOCC4)ccc3n2)c(C)n1-c1ccccc1 | 171 nM | 7110 nM |
